From US8562974B2, “Method for expanding Cd4+ Cd25+ T regulator cells” (Fondazione Telethon, priority 2005, dated 2013)

What was measured:
[1] = tested on: CD4^+CD25^− and CD4^+CD25^+ T cells; assay: Proliferation of sorted CD4+CD25- and CD4+CD25+ T cells with anti-CD3+anti-CD28+IL-2, CFSE; type: cell-based, human; conditions: 100 nM rapamycin, 7 days
Procedure: CD4^+CD25^− and CD4^+CD25^bright T cells were FACS sorted. Subsequently, sorted CD4^+CD25^− T cells were stained with CSFE and sorted CD4^+CD25^+ T cells were added back to the same amount present in unsorted CD4^+ T cells (5%) (FIG. 13, left panel). Alternatively, sorted CD4^+CD25^+ T cells were stained with CSFE and sorted CD4^+CD25^− T cells were added back to the same amount present in unsorted CD4^+ T cells (95%) (right panel of FIG. 13). The two distinct CFSE stained cell populations were activated with anti-CD3+anti-CD28 mAbs+IL-2 in the presence or absence of 100 nM rapamycin. CFSE dilution was monitored 7 days after activation. Numbers indicate the percentage of CFSE^+ dividing cells.

[2] = tested on: CD4^+ T cells; assay: In vitro treatment of CD4+ T cells with rapamycin: CD4+CD25+ Tr cell content; type: cell-based; conditions: in vitro treatment of CD4+ T cells (5-10% Tr cells at start)
[3] = tested on: CD4^+ T cells isolated from PBMCs; assay: TCR-mediated proliferation and anergy of human CD4+ T cells, CFSE; type: cell-based
Procedure: CD4^+ T cells isolated from PBMCs of healthy subjects or T1D patients were activated with plate bound anti-CD3 (10 μg/ml) and soluble of anti-CD28 (1 μg/ml) mAbs (BD Biosciences). Cells were cultured in the presence of medium (x-vivo 10) alone or with 100 nM rapamycin (Sigma, St Louis, Mo.). Three round of stimulations of 7 days each were performed. IL-2 (BD Biosciences) was added starting from the second round of stimulation at 100 U/ml.
CD4^+ T cells were stained with CFSE either at the beginning of the culture (1st week), or at the end of one (2nd week), or three (4th week) round of stimulations. CFSE^+ CD4^+ T cells were activated in vitro in the presence of anti-CD3+anti-CD28 mAbs in the presence or absence of 100 nM rapamycin. CFSE dilution was monitored 7 days after activation.
After 3 round of stimulations with anti-CD3+anti-CD28 mAbs (T medium) or anti-CD3+anti-CD28 mAbs+rapamycin (T rapamycin), CD4^+ T cells were stained with CFSE and re-stimulated with anti-CD3+anti-CD28 mAbs in the absence of the compound and of exogenous IL-2. CFSE dilution was monitored 7 days after activation. Numbers indicate the percentage of dividing cells.

[4] = tested on: FOXP3 mRNA; assay: FOXP3 quantitative PCR; conditions: CD4+ T cells exposed to rapamycin
From the text: Total RNA was extracted with Eurozol (Euroclone, Switzerland), and cDNA was synthesized with High Capacity cDNA Archive Kit (Applied Biosystems, New Jersey, USA). Levels of FOXP3 mRNA was quantified using Assay on Demand real-time PCR kits (Applied Biosystems, New Jersey, USA) with TaqMan Universal PCR Master Mix (Applied Biosystems, New Jersey, USA). Levels of 18s rRNA was quantified as internal control by using TaqMan PDAR Eukaryotic 18s Endogenus Controls (Applied Biosystems, assay ID: Mm00475156m1). Samples were run in duplicate, and relative expression of FOXP3 was determined by normalizing to 18 s expression in each set of samples in order to calculate a fold-change in value.
To address this question, CD4^+ T cells depleted of the CD25^+ Tr cells were cultured for three weeks in the presence or absence of rapamycin. […] The cultured cells were added in equal number to naïve KJ1-26^+CFSE^+ cells (10^5:10^5) and proliferation was monitored by CFSE dilution. […] Relative levels of mRNA FOXP3 were determined by real time quantitative RT-PCR in CD4^+ (left panel) or CD4^+CD25^− (right panel) T cells repetitively activated in vitro with or without rapamycin. The amounts of FOXP3 mRNA are expressed as relative to that in splenocytes depleted of CD4^+CD25^+ T cells (which was given an arbitrary value of 1). […]

[5] = tested on: DO11.10 tg CD4^+ T cells; assay: CD4+CD25bright T cell content after 3 rounds of stimulation, FACS; type: cell-based, mice
Procedure: (§1) Cells were stained with the indicated Abs (all from BD Biosciences, Mountain View, Calif.), and were analyzed with a FACScan flow cytometer equipped with CellQuest software (BD Biosciences). To obtain highly purified CD4^+CD25^+/− T cells, CD4^+ T cells were first purified from splenocytes isolated from Balb/c mice by positive selection with αCD4 mAb-coated microbeads (Miltenyi Biotec, Bergisch Gladbach, Germany). Thereafter, CD4^+ T cells were stained with Cy-coupled αCD4 and PE-coupled αCD25 mAbs (BD Biosciences) and CD4^+CD25^+ T cells were sorted by FACS-sorting on a FAC-Star (BD Biosciences).
(§2) 1×10^6 CD4^+ T cells isolated from spleen of DO11.10 tg mice were stimulated with 4×10^6 APC from Balb/c mice (i.e. total splenocytes irradiated 3000 Rad) and 0.6 μM OVA323-339peptide (OVA) (Primm, Milano, Italy). Three rounds of stimulation of 7 days each were performed. IL-2 (BD Biosciences) was added starting from the second round of stimulation at 50 U/ml. Alternatively, 1×10^6 CD4^+ T cells isolated from spleen of Balb/c mice were stimulated with coated 10 μg/ml of αCD3 and soluble 1 μg/ml of αCD28 mAbs (BD Biosciences). Cells were cultured in the presence of medium alone or 100 nM rapamycin (Sigma, St Louis, Mo.). Three rounds of stimulation of 7 days each were performed. IL-2 (BD Biosciences) was added starting from the second round of stimulation at 50 U/ml. In separate experiments, sorted CD4^+CD25^+ T cells isolated from spleen of Balb/c mice were stimulated with coated 10 μg/ml of αCD3, soluble 1 μg/ml of αCD28 mAbs (BD Biosciences) and 1000 U/ml of IL-2. […]
After 3 rounds of stimulation with APC+OVA (medium) or APC+OVA+rapamycin (rapamycin), DO11.10 tg CD4^+ T cells were left resting for one week with no further stimulation in the presence of IL-2 (50 U/ml). After seven days cells were analyzed by FACS. […]
1×10^6 DO11.10 tg CD4^+ T cells (containing 70.000 CD4^+CD25^bright T cells) were cultured with APC+OVA (medium, white bar) or APC+OVA+rapamycin (dotted bar, rapamycin). After 3 rounds of stimulation, the total number of CD4^+CD25^brightT cells was determined by FACS.

[6] = tested on: Balb/c CD4^+CD25^+ T cells; assay: Culture of sorted CD4+CD25+ T cells with αCD3+αCD28+1000 U/ml IL-2: fold expansion and CD25bright content; type: cell-based, mice
Procedure: as §1
as §2, with “IL-2. Cells were cultured in the presence of medium alone or 100 nM rapamycin (Sigma, St Louis, Mo.). 1000 U/ml of IL-2 was added at the beginning of each new stimulation.” for “IL-2.”
Fold expansion of Balb/c CD4^+CD25^+ T cells 1, 2, and 3 weeks after culture in the presence of αCD3+αCD28+1000 U/ml IL-2 (medium, white bars) or αCD3+αCD28+1000 U/ml IL-2+rapamycin (rapamycin, dotted bars) was evaluated by direct cell counts. […] After seven days, cells were analyzed by FACS. […]

[7] = tested on: DO11.10 tg CD4^+ T cells; assay: Fold expansion of T cells over three rounds of APC+OVA stimulation, direct cell counts; type: cell-based, mice
Procedure: (§3) 1×10^6 CD4^+ T cells isolated from spleen of DO11.10 tg mice were stimulated with 4×10^6 APC from Balb/c mice (i.e. total splenocytes irradiated 3000 Rad) and 0.6 μM OVA323-339peptide (OVA) (Primm, Milano, Italy). Three rounds of stimulation of 7 days each were performed. IL-2 (BD Biosciences) was added starting from the second round of stimulation at 50 U/ml. Alternatively, 1×10^6 CD4^+ T cells isolated from spleen of Balb/c mice were stimulated with coated 10 μg/ml of αCD3 and soluble 1 μg/ml of αCD28 mAbs (BD Biosciences). Cells were cultured in the presence of medium alone or 100 nM rapamycin (Sigma, St Louis, Mo.). Three rounds of stimulation of 7 days each were performed. IL-2 (BD Biosciences) was added starting from the second round of stimulation at 50 U/ml. In separate experiments, sorted CD4^+CD25^+ T cells isolated from spleen of Balb/c mice were stimulated with coated 10 μg/ml of αCD3, soluble 1 μg/ml of αCD28 mAbs (BD Biosciences) and 1000 U/ml of IL-2. Cells were cultured in the presence of medium alone or 100 nM rapamycin (Sigma, St Louis, Mo.). 1000 U/ml of IL-2 was added at the beginning of each new stimulation.
Fold expansion of T cells was determined after each round of stimulation. […] Rapamycin binds to FKBP12 and the formed complex inhibits the function of mTOR, which is involved in a broad range of physiological processes linked to the control of cell-cycle. […]

[8] = tested on: DO11.10 tg CD4^+ T cells; assay: Cell size by FACS (FSC vs SSC) after 3 rounds of stimulation; type: cell-based, mice; conditions: 3 weeks activation with rapamycin, one week rest with IL-2 50 U/ml
Procedure: After 3 rounds of stimulation with APC+OVA (medium) or APC+OVA+rapamycin (rapamycin), DO11.10 tg CD4^+ T cells were left resting for one additional week with no further stimulation in the presence of IL-2 (50 U/ml). At the end of the seven days cell size was analyzed by FACS by plotting FSC vs SSC parameters. Small (continuous line) and big (dotted line) cells are circled. Naïve CD4^+ T cells from a DO11.10 tg mouse were used as control.

[9] = tested on: NOD CD4^+ T cells; assay: Ex vivo expansion of NOD CD4+ T cells with rapamycin: regulatory markers; type: cell-based; conditions: pre-diabetic 11 week old NOD mice, three rounds of stimulation
Procedure: CD4^+ T cells were obtained by incubation of splenocytes from pre-diabetic or diabetic NOD mice with αCD4 mAb-coated microbeads and applied onto MiniMacs columns (Miltenyi Biotec). The average purity was 95%. 1×10^6 CD4^+ T cells isolated from spleen of NOD mice were stimulated with coated 10 μg/ml of αCD3 and soluble 1 μg/ml of αCD28 mAbs (BD Biosciences). Cells were cultured in the presence of medium alone or 100 nM rapamycin (Sigma, St Louis, Mo.). Three rounds of stimulation of 7 days each were performed. IL-2 (BD Biosciences) was added starting from the second round of stimulation at 100 U/ml.
In this Example, we attempted to generate ex vivo Tr cells from non obese diabetic (NOD) mice. Spontaneously autoimmune diabetes in NOD mice mainly results from quantitative and qualitative changes in autoaggressive T effector cells. Older mice indeed harbor diabetogenic T cells that are progressively less prone to Tr cells-mediated inhibition (You et al. Diabetes, 2005). We tested whether rapamycin could expand functional Tr cells from NOD mice and whether these expanded T cells have a regulatory function. CD4^+ T cells were isolated from the spleen of pre-diabetic 11 week old NOD mice and were activated in vitro with anti-CD3 and CD28 mAbs in the presence of medium or rapamycin.

[10] = tested on: DO11.10 tg CD4^+ T cells; assay: Re-stimulation without compound after 3 rounds, CFSE dilution (anergy); type: cell-based, mice; conditions: after 3 rounds with rapamycin, re-stimulated with APC+OVA without rapamycin and IL-2, 5 days
Procedure: The proportion of CFSE^+ cells proliferating in vitro was calculated as described elsewhere (Lyons 1994). Briefly, the number of cells (events) in a given cycle (division: n) was divided by 2 raised to power n, to calculate the percentage of original precursor cells from which they arose. The sum of original precursors from division 1 to 6 represents the number of precursors cells which proliferated. The percent of CFSE^+ divided cells was calculated by [(# of precursors that proliferated1-6/# of total precursors0-6)×100].
In more detail in relation to FIG. 1C, after 3 rounds of stimulation with APC+OVA (medium) or APC+OVA+rapamycin (rapamycin), DO11.10 tg CD4^+T cells were stained with CFSE and re-stimulated with APC+OVA in the absence of the compound and of exogenous IL-2. CFSE dilution was monitored 5 days after activation.

[11] = tested on: DO11.10 tg CD4^+ T cells; assay: Activation induced cell death (AICD) by annexin V binding, FACS; type: cell-based, mice; conditions: APC+OVA, 100 nM rapamycin, 24 and 72 hours, vs control cells
Procedure: as §3
In more detail, DO11.10 tg CD4^+ T cells were cultured with APC+OVA (medium) or APC+OVA+rapamycin (rapamycin) and AICD was monitored by FACs after 24 and 72 hours of culture. Percentage of PI^+-annexinV^+ cells is indicated in each dot plot.

SMILES: CO[C@H]1C[C@@H]2CC[C@@H](C)[C@@](O)(O2)C(=O)C(=O)N2CCCC[C@H]2C(=O)O[C@H]([C@H](C)C[C@@H]2CC[C@@H](O)[C@H](OC)C2)CC(=O)[C@H](C)/C=C(\C)[C@@H](O)[C@@H](OC)C(=O)[C@H](C)C[C@H](C)/C=C/C=C/C=C/1C [rapamycin]
- TCR-mediated proliferation of CD4+CD25- vs CD4+CD25+ T cells [1]: Selectively Blocks TCR-Mediated Proliferation of CD4^+CD25^− T Cells but not of CD4^+CD25^+ Tr Cells
- increase of the CD4+CD25+ Tr cell content [2]: 20 fold
- T cell anergy ([3]; after 3 rounds, re-stimulated without compound and IL-2): Does Not Induce T Cell Anergy
- TCR-mediated proliferation of CD4+ T cells ([3]; anti-CD3+anti-CD28, 100 nM rapamycin): Strongly Reduces TCR-Mediated Proliferation
- FOXP3 expression [4]: enhanced
- enrichment in CD4+CD25bright T cells ([5]; T cells activated in the presence of rapamycin): highly enriched in
- content of CD4+CD25bright Tr cells ([5]; cells exposed to rapamycin, 3 rounds APC+OVA): around 60%
- total number of CD4+CD25bright T cells recovered ([5]; three weeks of culture, repetitive Ag-stimulation): markedly superior to that of control cultures
- kinetic of proliferation (fold expansion) ([6]; 100 nM rapamycin): delayed kinetic of proliferation compared to control cells
- expansion ([6]; starting from the third week of culture): greatly expanded
- percentage of CD4+CD25bright T cells ([6]; three weeks, vs control cells): higher percentage of
- kinetic of proliferation (fold expansion) ([7]; APC+OVA, 100 nM rapamycin, weeks 1-3): delayed kinetic of proliferation compared to control cells
- number of T cells recovered ([7]; end of the third week of culture): the same number of T cells was recovered in control- and rapamycin-cultures
- cell size and shape [8]: smaller and displayed a more round-like shape than control cells
- enrichment in CD4+CD62L+ and CD45RBlow cells [9]: highly enriched in
- ability to proliferate on re-stimulation [10]: retained their ability to proliferate
- apoptosis (AICD) upon in vitro activation [11]: neither increase nor reduction of apoptosis was observed
